Results published in article PMC10653066 (ACS Omega, 2023).
Read-outs that look alike come from different tables or passages of the source.

Assays:
[1] = system: YFV 17D; experiment: microbe, parasite or virus in culture; format: cell-based, Yellow fever virus; conditions: for EC50: Yellow fever virus, Huh-7, read-out: EC50 (YFV 17D, μM)
[2] = system: YFV 17D; conditions: read-out: EC50 against YFV; cited from earlier work

Compound | activity against YFV (words, SAR discussion) [1] | also measured
4-((1-((6-Acetylnaphthalen-1-yl)sulfonyl)-5-amino-1H-1,2,4-triazol-3-yl)amino)benzonitrile [RCB22056] | inactive | –
N#Cc1c(Nc2ccc(Cl)cc2)n[nH]c1NS(=O)(=O)c1ccc2ccccc2c1 [RCB16002, N-(3-((4-Chlorophenyl)amino)-4-cyano-1H-pyrazol-5-yl)naphthalene-2-sulfonamide] | – | EC50 [1]: 7.1 µM
N#Cc1c(Nc2ccc(F)cc2)n[nH]c1NS(=O)(=O)c1ccc2ccccc2c1 [RCB16003, N-(4-Cyano-3-((4-fluorophenyl)amino)-1H-pyrazol-5-yl)naphthalene-2-sulfonamide] | – | EC50 [2]: 3.2 µM
N#Cc1c(Nc2ccc(F)c(F)c2)n[nH]c1NS(=O)(=O)c1ccc2ccccc2c1 [RCB16004, N-(4-Cyano-3-((3,4-difluorophenyl)amino)-1H-pyrazol-5-yl)naphthalene-2-sulfonamide] | – | EC50 [1]: > 36 µM
COc1ccc(Nc2nc(N)n(S(=O)(=O)c3cccc4ccccc34)n2)cc1 [RCB16086, N^3-(4-Methoxyphenyl)-1-(naphthalen-1-ylsulfonyl)-1H-1,2,4-triazole-3,5-diamine] | complete loss of potency | –
Nc1nc(Nc2ccc(Cl)c(Cl)c2)n(S(=O)(=O)c2ccc3ccccc3c2)n1 [RCB17160, N^5-(3,4-Dichlorophenyl)-1-(naphthalen-2-ylsulfonyl)-1H-1,2,4-triazole-3,5-diamine] | did not display any activity | –
CC(=O)c1ccc2c(S(=O)(=O)n3nc(Nc4ccc(C#N)c(Cl)c4)nc3N)cccc2c1 [RCB22055, 4-((1-((6-Acetylnaphthalen-1-yl)sulfonyl)-5-amino-1H-1,2,4-triazol-3-yl)amino)-2-chlorobenzonitrile] | low micromolar activity | –
